Here are results for 15 compounds from US20250296914A1, “ANTIVIRAL COMPOUNDS AND COMPOSITIONS THEREFROM” (CONSEJO SUPERIOR DE INVESTIGACIONES CIENTÍFICAS, priority 2022, published 2025).

pEC50: −log10 of the molar value.

Data set [1] can be described thus: in vitro. To be noted: human.
Data set [2] concerns SARS-CoV-2 stock strain NL/2020. The data set is described as follows: Intracellular viral antigen (N protein) accumulation by immunofluorescence, A549-ACE2. The data set is classed as cell-based. To be noted: Severe acute respiratory syndrome coronavirus 2; A549-ACE2, MOI 0.005, viral antigen staining, 48 h.
The test system is the same in data set [3]. The data set is described as follows: Protective effect against virus-induced cytopathic effect (crystal violet staining of Vero-E6 monolayer). The data set is classed as cell-based. To be noted: Vero-E6, SARS-CoV-2 MOI 0.001, 72 h; for minimal effective concentration / pEC50: Severe acute respiratory syndrome coronavirus 2, Vero C1008, 72 h; for minimal effective concentration: read-out: PC MIN (lowest protective concentration); for pEC50: lowest fully protecting concentration averaged with next lower dilution, read-out: ESTIMATED EC50.

Data set [4] shares this test system. The data set is described as follows: Intracellular viral antigen (N protein) accumulation by immunofluorescence, Calu3. The data set is classed as cell-based. The following applies: Severe acute respiratory syndrome coronavirus 2; Calu-3, MOI 0.005, viral antigen staining, 48 h.
Data set [5] can be described thus: in vitro. To be noted: African green monkey.
Data set [6] has as its system SARS-CoV-2 stock strain NL/2020. The data set is described as follows: Intracellular viral antigen (N protein) accumulation by immunofluorescence, Vero-E6. The data set is classed as cell-based. The following applies: Severe acute respiratory syndrome coronavirus 2, Vero C1008; Vero-E6, MOI 0.005, viral antigen staining, 24 h.
For data set [7] the test system is unchanged. The data set is described as follows: Intracellular viral RNA quantification by RT-qPCR in A549-ACE2 cells. To be noted: for LOG viral RNA reduction: A549-ACE2, MOI 0.005, 48 h, vs DMSO. The data set is classed as cell-based.
The nature of data set [8]: in vitro. The following applies: human. This is another data set of the same source.

Turning to `COC(=O)c1cc(-c2ccnc(N3CCOCC3)c2)ccc1NC(C#N)[C@H](Cc1c[nH]c2ccccc12)NC(=O)OC(C)(C)C` (stereo partly drawn) [(Ian), methyl 2-(((2S)-2-((tert-butoxycarbonyl)amino)-1-cyano-3-(1H-indol-3-yl)propyl)amino)-5-(2-morpholinopyridin-4-yl)benzoate], the CC50 at 48 h in the data set “in vitro [1]” was over 50 µM. The pEC50 (as a rule, the EC50 on a negative log10 scale, so that one unit is a factor of ten) in data set [2] is 5.96; in data set [3], 5.86. Moreover, the EC90 (usually the concentration at which the effect reaches the 90% level) in data set [2] worked out at 6 µM. Moreover, the minimal effective concentration in data set [3] (50 to 0.78 μM tested) was found to be 1.85 µM.

Regarding `COC(=O)c1cc(Br)ccc1NC(C#N)[C@H](Cc1c[nH]c2ccccc12)NC(=O)OC(C)(C)C` (stereo partly drawn) [(Ib), methyl 5-bromo-2-(((2S)-2-((tert-butoxycarbonyl)amino)-1-cyano-3-(1H-indol-3-yl)propyl)amino)benzoate], the pEC50 in data set [4] is 5.92; in data set [2] it was 5.74; in data set [3], 6.24; in data set [6], 6.30. For the same compound, the EC90 in data set [4] was 2.5 µM; in data set [2], 2.7 µM; in data set [6], 2.2 µM. Besides, the minimal effective concentration in data set [3] (50 to 0.78 μM tested) worked out at 0.78 µM. The CC50 at 48 h in “in vitro [5]” was over 12.5 µM.

`CC(C)(C)OC(=O)N[C@@H](Cc1c[nH]c2ccccc12)C(C#N)Nc1ccc(Cl)cc1C(=O)c1ccccc1` (stereo partly drawn) [(Id), (3S)-3-(tert-Butoxycarbonylamino)-4-(1H-indol-3-yl)-2-((2-benzoyl-4-chlorophenyl)amino)butanenitrile]: the pEC50 in data set [4] was 6.52; in data set [2], 6.22; in data set [3], 6.24; in data set [6] it was 6.70. The EC90 worked out at 1.1 µM in data set [4], 1.4 µM in data set [2] and 0.5 µM in data set [6]. The minimal effective concentration in data set [3] (50 to 0.78 μM tested) stood at 0.78 µM. In “in vitro [5]”, this compound showed a CC50 at 48 h of over 50 µM.

With `COC(=O)c1cc(-c2ccc3c(c2)OCCO3)ccc1NC(C#N)[C@H](Cc1c[nH]c2ccccc12)NC(=O)OC(C)(C)C` (stereo partly drawn) [(If), methyl 2-(((2S)-2-((tert-butoxycarbonyl)amino)-1-cyano-3-(1H-indol-3-yl)propyl)amino)-5-(2,3-dihydrobenzo[b][1,4]dioxin-6-yl)benzoate], the CC50 at 48 h in the data set “in vitro [1]” is over 50 µM; in the data set “in vitro [5]”, over 50 µM; in the data set “in vitro [8]”, 50 µM. The pEC50 in data set [4] was 5.70; in data set [2], 6.00; in data set [3], 6.24; in data set [6], 6.00. For the same compound, the values for the EC90 in data set [4], in data set [2] and in data set [6] were 4 µM, 1.8 µM and 1.8 µM, respectively. In addition, the minimal effective concentration in data set [3] (50 to 0.78 μM tested) was determined as 0.78 µM. Further, the “LOG viral RNA reduction” value in data set [7] (compound concentration 4 μM) turned out to be 5.14 LOG. For the same compound, the “Prevention of SARS-CoV-2 propagation (in words)” value in data set [7] (A549-ACE2, conclusion from Table 5) is recorded as “effective in preventing propagation of SARS-CoV-2”.

In the case of `COC(=O)c1cc(-c2cccc(N3CCOCC3)c2)ccc1NC(C#N)[C@H](Cc1c[nH]c2ccccc12)NC(=O)OC(C)(C)C` (stereo partly drawn) [(Ig), methyl 4-(((2S)-2-((tert-butoxycarbonyl)amino)-1-cyano-3-(1H-indol-3-yl)propyl)amino)-3′-morpholino-[1,1′-biphenyl]-3-carboxylate], the CC50 at 48 h in the data set “in vitro [1]”, in “in vitro [5]” and in the data set “in vitro [8]” was over 50 µM each time. In addition, the pEC50 is 5.74 in data set [4], 5.74 in data set [2], 6.24 in data set [3] and 5.89 in data set [6]. For the same compound, the values for the EC90 in data set [4], in data set [2] and in data set [6] were 8 µM, 8 µM and 2 µM, respectively. The minimal effective concentration in data set [3] (50 to 0.78 μM tested) worked out at 0.78 µM.

For the compound `CCOC(=O)c1ccccc1NC(C#N)[C@H](Cc1c[nH]c2ccccc12)NC(=O)OC(C)(C)C` (stereo partly drawn) [(Ih), ethyl 2-(((2S)-2-((tert-butoxycarbonyl)amino)-1-cyano-3-(1H-indol-3-yl)propyl)amino)-benzoate], the pEC50 in data set [4] was 5.43; in data set [2], 5.40; in data set [3] it was 5.93; in data set [6], 7.00. For the same compound, the figures for the EC90 in data set [4], in data set [2] and in data set [6] were 4 µM, 7 µM and 2.5 µM, respectively. In addition, in data set [3] (50 to 0.78 μM tested), the minimal effective concentration amounted to 1.56 µM. Further, the CC50 at 48 h in the data set “in vitro [5]” is over 12.5 µM.

Consider `COC(=O)c1ccc(Br)cc1NC(C#N)[C@H](Cc1c[nH]c2ccccc12)NC(=O)OC(C)(C)C` (stereo partly drawn) [(Ii), methyl 4-bromo-2-(((2S)-2-((tert-butoxycarbonyl)amino)-1-cyano-3-(1H-indol-3-yl)propyl)-amino)benzoate], for which the pEC50 in data set [4] is over 6.05; in data set [2], 5.70; in data set [3], 5.93; in data set [6], 6.70. Also, the EC90 came out at 2.7 µM in data set [4], 6 µM in data set [2] and 1.4 µM in data set [6]. In addition, the minimal effective concentration in data set [3] (50 to 0.78 μM tested) is 1.56 µM. The CC50 at 48 h in “in vitro [5]” is over 12.5 µM.

For the compound `COC(=O)c1cc(-c2cc(OC(C)C)ccc2F)ccc1NC(C#N)[C@H](Cc1c[nH]c2ccccc12)NC(=O)OC(C)(C)C` (stereo partly drawn) [(Ip), methyl 4-(((2S)-2-((tert-butoxycarbonyl)amino)-1-cyano-3-(1H-indol-3-yl)propyl)amino)-2′-fluoro-5′-isopropoxy-[1,1′-biphenyl]-3-carboxylate], the negative logarithm of the EC50 (pEC50) in data set [4] is 5.74; in data set [2] it was 5.30; in data set [3], 5.93; in data set [6], 5.82. Moreover, the EC90 in data set [4] amounted to 8 µM; in data set [2] it was 9 µM; in data set [6], 7 µM. In addition, the minimal effective concentration in data set [3] (50 to 0.78 μM tested) is 1.56 µM. This compound showed a CC50 at 48 h in “in vitro [5]” of over 50 µM.

As to `COC(=O)c1cc(-c2ccc(N3CCOCC3)nc2)ccc1NC(C#N)[C@H](Cc1c[nH]c2ccccc12)NC(=O)OC(C)(C)C` (stereo partly drawn) [(Is), methyl 2-(((2S)-2-((tert-butoxycarbonyl)amino)-1-cyano-3-(1H-indol-3-yl)propyl)amino)-5-(6-morpholinopyridin-3-yl)benzoate], the CC50 at 48 h in the data set “in vitro [1]”, in the data set “in vitro [5]” and in “in vitro [8]” was over 50 µM throughout. The pEC50 was 5.89 in data set [4], 5.70 in data set [2], 5.93 in data set [3] and 6.40 in data set [6]. Also, the values for the EC90 in data set [4], in data set [2] and in data set [6] were 8 µM, 8 µM and 1.8 µM, respectively. Further, in data set [3] (50 to 0.78 μM tested), the minimal effective concentration amounted to 1.56 µM.

Turning to `CC(C)(C)OC(=O)N[C@@H](Cc1c[nH]c2ccccc12)C(C#N)Nc1ccccc1C(=O)OC(C)(C)C` (stereo partly drawn) [(Iv), tert-Butyl 2-(((2S)-2-((tert-butoxycarbonyl)amino)-1-cyano-3-(1H-indol-3-yl)propyl)amino)-benzoate], the minimal effective concentration in data set [3] (50 to 0.78 μM tested) was determined as 3.12 µM. In addition, in data set [3], the pEC50 is 5.63.

For `CCCCc1ccc(-c2ccc(NC(C#N)[C@H](Cc3c[nH]c4ccccc34)NC(=O)OC(C)(C)C)c(C(=O)OC)c2)cc1` (stereo partly drawn) [(Iw), methyl 4-(((2S)-2-((tert-butoxycarbonyl)amino)-1-cyano-3-(1H-indol-3-yl)propyl)amino)-4′-butyl-[1,1′-biphenyl]-3-carboxylate], the pEC50 in data set [3] is 5.63. The “PC MIN (lowest protective concentration)” value in data set [3] (50 to 0.78 μM tested) is 3.12 µM.

Consider `CCN(CC)c1ccc(-c2ccc(NC(C#N)[C@H](Cc3c[nH]c4ccccc34)NC(=O)OC(C)(C)C)c(C(=O)OC)c2)cc1` (stereo partly drawn) [(Ix), methyl 4-(((2S)-2-((tert-butoxycarbonyl)amino)-1-cyano-3-(1H-indol-3-yl)propyl)amino)-4′-(diethylamino)-[1,1′-biphenyl]-3-carboxylate], for which, in data set [3] (50 to 0.78 μM tested), the minimal effective concentration turned out to be 3.12 µM. Moreover, in data set [3], the pEC50 was 5.63.

On to `CCCOc1ccc(-c2ccc(NC(C#N)[C@H](Cc3c[nH]c4ccccc34)NC(=O)OC(C)(C)C)c(C(=O)OC)c2)cc1` (stereo partly drawn) [(Iy), methyl 4-(((2S)-2-((tert-butoxycarbonyl)amino)-1-cyano-3-(1H-indol-3-yl)propyl)amino)-4′-propoxy-[1,1′-biphenyl]-3-carboxylate], for which the minimal effective concentration in data set [3] (50 to 0.78 μM tested) is 3.12 µM. The pEC50 in data set [3] was 5.63.

As to `COC(=O)c1cc(-c2cccc(C(C)(C)C)c2)ccc1NC(C#N)[C@H](Cc1c[nH]c2ccccc12)NC(=O)OC(C)(C)C` (stereo partly drawn) [(Iz), methyl 4-(((2S)-2-((tert-butoxycarbonyl)amino)-1-cyano-3-(1H-indol-3-yl)propyl)amino)-3′-(tert-butyl)-[1,1′-biphenyl]-3-carboxylate], the minimal effective concentration in data set [3] (50 to 0.78 μM tested) is 3.12 µM. Also, the pEC50 in data set [3] was 5.63.

As to `CCC(CC)COC(=O)[C@H](C)N[P@](=O)(OC[C@H]1O[C@@](C#N)(c2ccc3c(N)ncnn23)[C@H](O)[C@@H]1O)Oc1ccccc1` [Remdesivir, remdesivir, reference compound], the “LOG viral RNA reduction” value in data set [7] (compound concentration 5 μM) turned out to be 6.67 LOG.
